Experimental data taken from ChEMBL document CHEMBL1201862, “PubChem BioAssay data set” (2004).
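Five compound concentrations were applied to cells in 96-well plates for 48 hours; endpoints were derived by simple linear interpolation of the resulting dose-response curve. At the GI50, growth is halved.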 The source made the active and inactive calls. Cut-off read from the data, not from the text of the source: active = GI50 up to about 1.1 µM and inactive = higher.

Assays:
Experiment in all cases: NCI anticancer screen, dose series, 48 h
786-0 = test system: 786-0
UACC-257 = test system: UACC-257
COLO 205 = test system: COLO 205
SW-620 = test system: SW-620
HOP-92 = test system: HOP-92
NCI-H460 = test system: NCI-H460
MOLT-4 = test system: MOLT-4
SK-MEL-28 = test system: SK-MEL-28
NCI-H522 = test system: NCI-H522
HL-60 = test system: HL-60
SK-OV-3 = test system: SK-OV-3
TK-10 = test system: TK-10
CCRF-CEM = test system: CCRF-CEM
SF-539 = test system: SF-539
K562 = test system: K562
IGROV-1 = test system: IGROV-1
SK-MEL-2 = test system: SK-MEL-2
UACC-62 = test system: UACC-62
PC-3 = test system: PC-3
NCI/ADR-RES = test system: NCI/ADR-RES

SMILES | GI50 (786-0) | GI50 (UACC-257) | GI50 (COLO 205) | GI50 (SW-620) | GI50 (HOP-92) | GI50 (NCI-H460) | GI50 (MOLT-4) | GI50 (SK-MEL-28) | GI50 (NCI-H522) | GI50 (HL-60) | GI50 (SK-OV-3) | GI50 (TK-10) | GI50 (CCRF-CEM) | GI50 (SF-539) | GI50 (K562) | GI50 (IGROV-1) | GI50 (SK-MEL-2) | GI50 (UACC-62) | GI50 (PC-3) | GI50 (NCI/ADR-RES)
CC1=CC(O)(c2ccc(-c3ccccc3Cl)cc2)OC1=O (centres undefined) | > 100 µM (inactive) | > 100 µM (inactive) | > 100 µM (inactive) | > 100 µM (inactive) | > 100 µM (inactive) | > 100 µM (inactive) | > 100 µM (inactive) | > 100 µM (inactive) | > 100 µM (inactive) | > 100 µM (inactive) | > 100 µM (inactive) | > 100 µM (inactive) | > 100 µM (inactive) | > 100 µM (inactive) | > 100 µM (inactive) | > 100 µM (inactive) | > 100 µM (inactive) | > 100 µM (inactive) | – | –
COC1(C)CNCC(C)(C)NC(=O)C(C)(OC)CNCC(C)(C)NC1=O (centres undefined) | > 100 µM (inactive) | > 100 µM (inactive) | > 100 µM (inactive) | 49.4 µM (inactive) | > 100 µM (inactive) | > 100 µM (inactive) | > 100 µM (inactive) | > 100 µM (inactive) | > 100 µM (inactive) | > 100 µM (inactive) | > 100 µM (inactive) | > 100 µM (inactive) | > 100 µM (inactive) | > 100 µM (inactive) | > 100 µM (inactive) | > 100 µM (inactive) | > 100 µM (inactive) | > 100 µM (inactive) | – | –
CC(=O)c1ccc(NC(=O)C(=O)C(C(=O)/C=C/c2ccccc2)C2OC(=O)c3ccccc32)cc1 (centres undefined) | > 100 µM (inactive) | > 100 µM (inactive) | > 100 µM (inactive) | > 100 µM (inactive) | > 100 µM (inactive) | > 100 µM (inactive) | 77.4 µM (inactive) | > 100 µM (inactive) | > 100 µM (inactive) | > 100 µM (inactive) | > 100 µM (inactive) | > 100 µM (inactive) | 53.5 µM (inactive) | > 100 µM (inactive) | 74.5 µM (inactive) | > 100 µM (inactive) | > 100 µM (inactive) | > 100 µM (inactive) | – | –
O=CC12CCCN1CCC2 | > 100 µM (inactive) | > 100 µM (inactive) | > 100 µM (inactive) | > 100 µM (inactive) | – | > 100 µM (inactive) | > 100 µM (inactive) | > 100 µM (inactive) | > 100 µM (inactive) | – | > 100 µM (inactive) | > 100 µM (inactive) | > 100 µM (inactive) | – | > 100 µM (inactive) | > 100 µM (inactive) | > 100 µM (inactive) | > 100 µM (inactive) | > 100 µM (inactive) | > 100 µM (inactive)
COc1c2c(cc3oc(=O)ccc13)OC(C)(C)C=C2 [XANTHOXYLETIN] | 22.4 µM (inactive) | 31.7 µM (inactive) | 25.4 µM (inactive) | 26.1 µM (inactive) | 7.29 µM (inactive) | 24.2 µM (inactive) | 23.8 µM (inactive) | 32.6 µM (inactive) | 21 µM (inactive) | 15.8 µM (inactive) | 40.5 µM (inactive) | 30.9 µM (inactive) | – | 36.6 µM (inactive) | 35.2 µM (inactive) | 27.6 µM (inactive) | 23 µM (inactive) | 22.6 µM (inactive) | – | 26 µM (inactive)
O=C1NC(c2cccc(OCc3ccccc3)c2)Nc2ccccc21 (centres undefined) | 0.286 µM (active) | 1.36 µM (inactive) | 0.191 µM (active) | 0.0938 µM (active) | – | 0.208 µM (active) | 0.23 µM (active) | 0.309 µM (active) | 0.213 µM (active) | < 0.0184 µM (active) | 0.307 µM (active) | 0.603 µM (active) | 0.0479 µM (active) | 0.201 µM (active) | 0.0189 µM (active) | 0.5 µM (active) | 1.67 µM (inactive) | 0.495 µM (active) | 0.162 µM (active) | 0.117 µM (active)
O=C(Nc1nc2ccccc2n1Cc1ccccc1)NC12CC3CC(CC(C3)C1)C2 | 24 µM (inactive) | > 100 µM (inactive) | 48.5 µM (inactive) | > 100 µM (inactive) | 23 µM (inactive) | 41 µM (inactive) | > 100 µM (inactive) | 79.3 µM (inactive) | 44.7 µM (inactive) | > 100 µM (inactive) | 27.9 µM (inactive) | 65.5 µM (inactive) | > 100 µM (inactive) | 36 µM (inactive) | > 100 µM (inactive) | 75.3 µM (inactive) | > 100 µM (inactive) | 41.9 µM (inactive) | – | –
C=CCOC(=O)C1C2OC3(C(C(=O)OC)=C2C(=O)OC)c2ccccc2CCC13 (centres undefined) | > 10 µM (inactive) | > 10 µM (inactive) | > 10 µM (inactive) | > 10 µM (inactive) | – | > 10 µM (inactive) | > 10 µM (inactive) | > 10 µM (inactive) | – | > 10 µM (inactive) | > 10 µM (inactive) | > 10 µM (inactive) | > 10 µM (inactive) | > 10 µM (inactive) | > 10 µM (inactive) | > 10 µM (inactive) | > 10 µM (inactive) | > 10 µM (inactive) | > 10 µM (inactive) | > 10 µM (inactive)
